Ki data for one molecule are collected here from patent US5529918A, “Process for preparing neuraminidase” (Fidia S.p.A., priority 1991, dated 1996).

This test has as its system neuraminidase from Arthrobacter Sp. (Arthrobacter ureafaciens VR-1, NCIMB 40717), purified, molecular weight 55,000-60,000. Description: Neuraminidase enzymatic activity and inhibition (thiobarbituric acid method, released NANA). It counts as biochemical. As to conditions: inhibition of the neuraminidase by NANA; GDia as substrate in the activity test. Here is the method: The enzymatic activity of the neuraminidase is determined at the saturation levels of the substrate concentration, corresponding to 5 times the Km value.
The released product is measured by employing the colorimetric technique (thiobarbituric acid method). For instance, when the neuraminidase enzyme and its substrate (a ganglioside like GDia) are incubated for 5-10 minutes and the NANA, hydrolyzed from the substrate, is employed for evaluating the enzymatic activity, the NANA released in the solution undergoes a series of reactions, in order to determine its actual amount.
Since NANA is also employed for obtaining the culture media of the steady state wherefrom the filtrate is extracted, a few check reactions are carried out, in order to ascertain that the measured NANA be the one coming from the reaction between enzyme and substrate and not the one coming as a residue from the original culture.
For instance, a few tests are carried out on 3 test-tubes, as reported hereinbelow. […]
In the first test-tube (S) there should be no NANA. Should NANA be retrieved in the second test-tube (B), its spectrophotometric reading is subtracted from the reading obtained from the reaction in test-tube three (E). The enzyme activity is therefore indirectly measured as the amount of hydrolized NANA per minute at pH 5.3 and at 37° C., using GDia as the substrate. […]

As for `CC(=O)N[C@H]1[C@H]([C@H](O)[C@H](O)CO)OC(O)(C(=O)O)C[C@@H]1O` (stereo partly shown) [NANA, N-acetyl-neuraminic acid], the Ki – broadly, a dissociation constant, usually derived from enzyme kinetics or from competition with a known ligand – was around 300 µM.
